Measurements taken from PubChem BioAssay AID1963972 (Molecular Pharmacology Branch, DTP, NCI, 2024).

Tested on: 945468-187-T-J2-PDC spheroids viability
Assay: Anticancer human tumor 945468-187-T-J2-PDC patient-derived rectal carcinoma cell line growth inhibition [PI3K]
Details: spheroids with HUVEC and MSC; for IC50: curve of first compound; for viability, T/C: stronger effect = lower value
In short: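 Multi-cell spheroids combine tumor cells with HUVEC and human MSCs, treated with targeted agents alone or with inavolisib, alpelisib, duvelisib or copanlisib. Concentrations fall in half-log steps from at or near clinical Cmax, or from 10 microM where Cmax is unknown; viability read-out.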
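Note: spheroids exposed to compounds for seven days before reading.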

## CC1(C)CCC(Nc2ncc(C(F)(F)F)c(-c3c[nH]c4c(P(C)(C)=O)c(C#N)ccc34)n2)CN1 (centres undefined) + COc1c(OCCCN2CCOCC2)ccc2c3n(c(=NC(=O)c4cnc(N)nc4)nc12)CCN3
Second compound 0.00316 µM
  IC50: 663 nM
Second compound 0.01 µM
  IC50: 871 nM
Second compound 0.0316 µM
  IC50: 745 nM
Second compound 0.1 µM
  IC50: 663 nM
Second compound 0.316 µM
  IC50: < 31.6 nM
Second compound 1 µM
  IC50: < 31.6 nM
Second compound 0.00316 µM, first compound 0.0316 µM
  viability, T/C: 91%
Second compound 0.00316 µM, first compound 0.1 µM
  viability, T/C: 86.8%
Second compound 0.00316 µM, first compound 0.316 µM
  viability, T/C: 66.3%
Second compound 0.00316 µM, first compound 1 µM
  viability, T/C: 40.5%
Second compound 0.00316 µM, first compound 3.16 µM
  viability, T/C: 32.6%
Second compound 0.00316 µM, first compound 10 µM
  viability, T/C: 27.6%
Second compound 0.01 µM, first compound 0.0316 µM
  viability, T/C: 92.9%
Second compound 0.01 µM, first compound 0.1 µM
  viability, T/C: 89.8%
Second compound 0.01 µM, first compound 0.316 µM
  viability, T/C: 76%
Second compound 0.01 µM, first compound 1 µM
  viability, T/C: 46.8%
Second compound 0.01 µM, first compound 3.16 µM
  viability, T/C: 30.2%
Second compound 0.01 µM, first compound 10 µM
  viability, T/C: 28.7%
Second compound 0.0316 µM, first compound 0.0316 µM
  viability, T/C: 110%
Second compound 0.0316 µM, first compound 0.1 µM
  viability, T/C: 85%
Second compound 0.0316 µM, first compound 0.316 µM
  viability, T/C: 69.2%
Second compound 0.0316 µM, first compound 1 µM
  viability, T/C: 38.9%
Second compound 0.0316 µM, first compound 3.16 µM
  viability, T/C: 37.7%
Second compound 0.0316 µM, first compound 10 µM
  viability, T/C: 25.9%
Second compound 0.1 µM, first compound 0.0316 µM
  viability, T/C: 86.5%
Second compound 0.1 µM, first compound 0.1 µM
  viability, T/C: 88.4%
Second compound 0.1 µM, first compound 0.316 µM
  viability, T/C: 62.8%
Second compound 0.1 µM, first compound 1 µM
  viability, T/C: 43.5%
Second compound 0.1 µM, first compound 3.16 µM
  viability, T/C: 37.3%
Second compound 0.1 µM, first compound 10 µM
  viability, T/C: 31.8%
Second compound 0.316 µM, first compound 0.0316 µM
  viability, T/C: 42%
Second compound 0.316 µM, first compound 0.1 µM
  viability, T/C: 44.3%
Second compound 0.316 µM, first compound 0.316 µM
  viability, T/C: 40.2%
Second compound 0.316 µM, first compound 1 µM
  viability, T/C: 33.8%
Second compound 0.316 µM, first compound 3.16 µM
  viability, T/C: 31.2%
Second compound 0.316 µM, first compound 10 µM
  viability, T/C: 17.2%
Second compound 1 µM, first compound 0.0316 µM
  viability, T/C: 21.3%
Second compound 1 µM, first compound 0.1 µM
  viability, T/C: 19.5%
Second compound 1 µM, first compound 0.316 µM
  viability, T/C: 22.8%
Second compound 1 µM, first compound 1 µM
  viability, T/C: 19%
Second compound 1 µM, first compound 3.16 µM
  viability, T/C: 17.7%
Second compound 1 µM, first compound 10 µM
  viability, T/C: 10.2%

## Cn1cnc2c(F)c(Nc3ccc(Br)cc3Cl)c(C(=O)NOCCO)cc21 + Cc1nc(NC(=O)N2CCCC2C(N)=O)sc1-c1ccnc(C(C)(C)C(F)(F)F)c1
Second compound 0.0316 µM
  IC50: > 3000 nM
Second compound 0.1 µM
  IC50: > 3000 nM
Second compound 0.316 µM
  IC50: > 3000 nM
Second compound 1 µM
  IC50: > 3000 nM
Second compound 3.16 µM
  IC50: 2600 nM
Second compound 10 µM
  IC50: 895 nM
Second compound 0.0316 µM, first compound 0.00949 µM
  viability, T/C: 87.9%
Second compound 0.0316 µM, first compound 0.03 µM
  viability, T/C: 73.6%
Second compound 0.0316 µM, first compound 0.0949 µM
  viability, T/C: 79.8%
Second compound 0.0316 µM, first compound 0.3 µM
  viability, T/C: 71.8%
Second compound 0.0316 µM, first compound 0.949 µM
  viability, T/C: 66.7%
Second compound 0.0316 µM, first compound 3 µM
  viability, T/C: 62%
Second compound 0.1 µM, first compound 0.00949 µM
  viability, T/C: 110%
Second compound 0.1 µM, first compound 0.03 µM
  viability, T/C: 84.5%
Second compound 0.1 µM, first compound 0.0949 µM
  viability, T/C: 88.9%
Second compound 0.1 µM, first compound 0.3 µM
  viability, T/C: 77.4%
Second compound 0.1 µM, first compound 0.949 µM
  viability, T/C: 70.9%
Second compound 0.1 µM, first compound 3 µM
  viability, T/C: 63.1%
Second compound 0.316 µM, first compound 0.00949 µM
  viability, T/C: 99%
Second compound 0.316 µM, first compound 0.03 µM
  viability, T/C: 74.1%
Second compound 0.316 µM, first compound 0.0949 µM
  viability, T/C: 82.4%
Second compound 0.316 µM, first compound 0.3 µM
  viability, T/C: 75.1%
Second compound 0.316 µM, first compound 0.949 µM
  viability, T/C: 68.7%
Second compound 0.316 µM, first compound 3 µM
  viability, T/C: 69.4%
Second compound 1 µM, first compound 0.00949 µM
  viability, T/C: 71.7%
Second compound 1 µM, first compound 0.03 µM
  viability, T/C: 114%
Second compound 1 µM, first compound 0.0949 µM
  viability, T/C: 80.6%
Second compound 1 µM, first compound 0.3 µM
  viability, T/C: 76.6%
Second compound 1 µM, first compound 0.949 µM
  viability, T/C: 66.5%
Second compound 1 µM, first compound 3 µM
  viability, T/C: 55.6%
Second compound 3.16 µM, first compound 0.00949 µM
  viability, T/C: 68.6%
Second compound 3.16 µM, first compound 0.03 µM
  viability, T/C: 78%
Second compound 3.16 µM, first compound 0.0949 µM
  viability, T/C: 97.3%
Second compound 3.16 µM, first compound 0.3 µM
  viability, T/C: 67.8%
Second compound 3.16 µM, first compound 0.949 µM
  viability, T/C: 70.8%
Second compound 3.16 µM, first compound 3 µM
  viability, T/C: 47.1%
Second compound 10 µM, first compound 0.00949 µM
  viability, T/C: 77.3%
Second compound 10 µM, first compound 0.03 µM
  viability, T/C: 68.2%
Second compound 10 µM, first compound 0.0949 µM
  viability, T/C: 68.8%
Second compound 10 µM, first compound 0.3 µM
  viability, T/C: 61.2%
Second compound 10 µM, first compound 0.949 µM
  viability, T/C: 51.8%
Second compound 10 µM, first compound 3 µM
  viability, T/C: 10.5%
